Test results: ChEMBL document CHEMBL3580564, “Semisynthetic Studies on and Biological Evaluation of N-Methyllaurotetanine Analogues as Ligands for 5-HT Receptors” (J Nat Prod, 2015)

Assays:
[1] = target: T1, 5-hydroxytryptamine receptor 1A (Homo sapiens, UniProt P08908); test: Displacement of [3H]Way100635 from human recombinant 5-HT1A receptor expressed in CHO cell membranes by radioligand binding assay
T1 sequence (P08908 whole entry): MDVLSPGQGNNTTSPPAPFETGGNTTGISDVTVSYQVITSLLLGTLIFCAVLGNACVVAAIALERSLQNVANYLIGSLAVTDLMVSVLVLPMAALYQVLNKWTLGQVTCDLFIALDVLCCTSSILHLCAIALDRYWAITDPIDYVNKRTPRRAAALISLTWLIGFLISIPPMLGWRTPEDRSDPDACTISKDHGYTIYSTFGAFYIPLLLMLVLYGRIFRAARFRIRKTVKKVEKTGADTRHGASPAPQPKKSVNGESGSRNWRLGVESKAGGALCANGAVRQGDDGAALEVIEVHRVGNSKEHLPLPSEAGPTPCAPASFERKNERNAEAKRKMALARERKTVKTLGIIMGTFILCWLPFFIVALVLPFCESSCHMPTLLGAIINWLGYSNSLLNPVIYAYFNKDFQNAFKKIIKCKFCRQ

[2] = target: T2, 5-hydroxytryptamine receptor 1A (Homo sapiens) (UniProt P08908); test: Potency index, ratio of Ki for N-Methyllaurotetanine to Ki for test compound against human recombinant 5-HT1A receptor expressed in CHO cell membranes by radioligand binding assay
T2 sequence (whole entry): T1 sequence (P08908 whole entry)

[3] = organism: Homo sapiens; test: Selectivity index, ratio of Ki for human recombinant 5-HT2A receptor to Ki for human recombinant 5-HT7 receptor
[4] = organism: Homo sapiens; test: Selectivity index, ratio of Ki for human recombinant 5-HT1A receptor to Ki for human recombinant 5-HT7 receptor
[5] = target: 5-hydroxytryptamine receptor 7 (Homo sapiens, UniProt P34969); test: Displacement of [3H]LSD from human recombinant 5-HT7 receptor expressed in HEK cell membranes by radioligand binding assay; parameters: species or system HEK293
Sequence of 5-hydroxytryptamine receptor 7 (P34969 whole entry): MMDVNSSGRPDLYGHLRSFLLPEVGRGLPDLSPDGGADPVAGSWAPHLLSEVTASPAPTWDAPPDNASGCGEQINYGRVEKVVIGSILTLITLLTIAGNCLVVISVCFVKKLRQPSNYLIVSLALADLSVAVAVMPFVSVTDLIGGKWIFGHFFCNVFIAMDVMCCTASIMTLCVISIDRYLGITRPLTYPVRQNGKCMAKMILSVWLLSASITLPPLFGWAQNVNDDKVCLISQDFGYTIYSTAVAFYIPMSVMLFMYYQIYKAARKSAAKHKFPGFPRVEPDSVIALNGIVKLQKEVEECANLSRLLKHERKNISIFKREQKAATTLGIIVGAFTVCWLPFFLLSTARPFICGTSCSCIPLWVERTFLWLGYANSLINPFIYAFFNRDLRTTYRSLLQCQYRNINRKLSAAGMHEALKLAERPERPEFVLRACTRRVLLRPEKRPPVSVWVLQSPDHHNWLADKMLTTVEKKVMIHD

[6] = target: 5-hydroxytryptamine receptor 2A (Homo sapiens, UniProt P28223); test: Displacement of [3H]ketanserin from human recombinant 5-HT2A receptor expressed in HEKT cell membranes by radioligand binding assay; assay type: cell-based
Sequence of 5-hydroxytryptamine receptor 2A (P28223 whole entry): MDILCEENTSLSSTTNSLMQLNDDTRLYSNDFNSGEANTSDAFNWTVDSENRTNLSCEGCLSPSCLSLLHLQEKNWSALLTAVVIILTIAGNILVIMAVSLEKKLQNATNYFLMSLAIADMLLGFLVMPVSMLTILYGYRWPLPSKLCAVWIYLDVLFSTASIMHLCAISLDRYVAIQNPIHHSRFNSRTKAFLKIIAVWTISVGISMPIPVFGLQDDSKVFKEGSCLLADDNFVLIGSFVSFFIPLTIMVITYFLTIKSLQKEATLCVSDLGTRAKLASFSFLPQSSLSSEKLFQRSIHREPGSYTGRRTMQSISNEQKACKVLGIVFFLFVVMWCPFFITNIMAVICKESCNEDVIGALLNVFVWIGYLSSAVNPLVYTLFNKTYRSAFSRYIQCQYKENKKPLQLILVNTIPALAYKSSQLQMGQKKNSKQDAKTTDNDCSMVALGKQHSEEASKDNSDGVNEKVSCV

SMILES	Ki [1] [nM]	Ratio Ki [2]	Ratio Ki [3]	Ratio Ki [4]	Ki [5] [nM]	Ki [6] [nM]
COc1cc2c(cc1OCc1ccccc1)C[C@H]1c3c(cc(OC)c(OC)c3-2)CCN1C	92	3	9	4	23	216
CCC(C)Oc1cc2c(cc1OC)-c1c(OC)c(OC)cc3c1[C@H](C2)N(C)CC3 (stereo not given in full)	244	< 3	7	7	34	377
COc1cc2c(cc1OC(C)C)C[C@H]1c3c(cc(OC)c(OC)c3-2)CCN1C	563		27	20	28	750
CCCCCCOc1cc2c(cc1OC)-c1c(OC)c(OC)cc3c1[C@H](C2)N(C)CC3	273		10	5	58	570
COc1cc2c(cc1OCc1ccc(Br)cc1)C[C@H]1c3c(cc(OC)c(OC)c3-2)CCN1C	102	3	8	2	54	418
CCCCC(C)Oc1cc2c(cc1OC)-c1c(OC)c(OC)cc3c1[C@H](C2)N(C)CC3 (stereo not given in full)	152	< 3	12	4	38	446
CCCC(C)Oc1cc2c(cc1OC)-c1c(OC)c(OC)cc3c1[C@H](C2)N(C)CC3 (stereo not given in full)	117	< 3	5	5	24	244
COc1cc2c(cc1OCCF)C[C@H]1c3c(cc(OC)c(OC)c3-2)CCN1C	845		22	16	52	1160
